Test results reported in patent US10301288B2, “Kinase inhibitors” (Topivert Pharma Limited, priority 2013, dated 2019).
Marks after values point to notes of the source that are not given here.

Tests used:
Syk = Syk (Homo sapiens (Human), UniProt P43405); assay: Syk enzyme inhibition (FRET); format: biochemical
Outline: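 Z-LYTE FRET peptide assay: c-Src (3000 ng/mL) or Syk (2000 ng/mL) preincubated 2 h at room temperature with compound (4–0.004 μg/mL working solutions). Reaction was 1 h with peptide (8 μM solution) and ATP (800 μM c-Src, 60 μM Syk solutions), followed by 1 h protease development. Phosphorylation was read as the coumarin/fluorescein emission ratio.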

[1] = Cryopreserved hepatocyte stability, Cynomolgus macaque; format: in vitro ADME; details: pooled cryopreserved hepatocytes, read-out: Mean intrinsic clearance
Description: Formulae Clint(tissue clearance) mL/min/kg=[0.693/t½ (min)]×[1/microsomal protein concentration mg/mL]×[mg microsomes/g liver]×[g liver/kg body weight] […] The incubations were performed at 37° C. with 100 μL, samples taken from the incubation, at 0, 10, 20, 45 and 90 minutes, and reactions terminated by addition of 100 μL of acetonitrile containing carbamazepine as analytical internal standard. […] Half-life values were calculated from the relationship T1/2 (min)=−0.693/λ • where λ was the slope of the Ln concentration vs time curve. • Standard compounds testosterone, midazolam and 4-methylumbelliferone are included in the assay design.
Clint(Tissue Clearance) mL/min/kg=[0.693/t½(min)]×[1/hepatocyte concentration (million cells/mL)]×[million cells/g liver]×[g liver/kg body weight] Clint(Hepatic clearance) mL/min/kg=hepatic blood flow×Clint/(hepatic blood flow+Clint) Hepatic extraction ratio(Eh)=Clint(Hepatic clearance) mL/min/kg/hepatic blood flow (mL/min/kg)

HT29 cells = assay: (d) IL-1β-induced IL-8 release in HT29 cells; format: cell-based; details: Homo sapiens, HT-29, read-out: IC50 for Inhibition of Cytokine Release, IL-8
Description: HT29 cells, a human colon adenocarcinoma cell line, are plated in a 96 well plate (24 hrs) and pre-treated with compounds at the desired concentration for 2 hours before addition of 5 ng/ml of IL-1β (Abeam) for 24 hours. Supernatants are harvested for IL-8 quantification by Sandwich ELISA (Duo-set, R&D System). The IC50 is determined from the dose response curve.

[2] = Hepatic microsomal stability, human; format: in vitro ADME; details: pooled liver microsomes, read-out: Mean intrinsic clearance
Description: (§1) • Microsomal stability assays were performed with incubations of test compounds at 0.1 μM (n=2, final DMSO concentration 0.25%), and carried out using pooled human, […], rat and Cynomolgus macaque hepatic microsomes from Xenotech (Lots 1210153, 0810143 and 1110042, respectively) at 0.25 mg protein/mL in the presence of cofactor, NADPH. The incubations were performed at 37° C. with 100 μL aliquots taken from the incubation, at 0, 2, 5, 10 and 20 minutes (and, in the case of Cynomolgus macaque hepatic microsomes, 40 minutes) and reactions terminated by addition of 100 μL of acetonitrile containing carbamazepine as analytical internal standard. […] Half-life values were calculated from the relationship T1/2 (min)=−0.693/λ • where λ was the slope of the Ln concentration vs time curve. • The in vitro intrinsic clearance, Clint (mL/min/kg), was calculated and scaled to hepatic extraction ratios using the following scaling parameters and formulae.
(§2) Formulae Clint(tissue clearance) mL/min/kg=[0.693/t½ (min)]×[1/microsomal protein concentration mg/mL]×[mg microsomes/g liver]×[g liver/kg body weight] […] Half-life values were calculated from the relationship T1/2 (min)=−0.693/λ • where λ was the slope of the Ln concentration vs time curve. • Standard compounds testosterone, midazolam and 4-methylumbelliferone are included in the assay design.

[3] = tested on: TNBS-induced colitis in mice; assay: (C) TNBS-induced colitis in mice; format: in vivo, male BDF1 mice; details: for LP inflammation / Ulcer grade: 2 days
Description: Non-fasted, 10-12 week old, male BDF1 mice are dosed by oral gavage twice daily with either vehicle (5 mL/kg), reference item (Budesonide 2.5 mg/kg) or test compound (1 or 5 mg/kg) one day before (Day −1) stimulation of the inflammatory response by treatment with 2,4,6-trinitrobenzenesulphonic acid (TNBS) (15 mg/mL in 50% ethanol/50% saline). On Day 0 of the study TNBS (200 μL) is administered intra-colonically via a plastic catheter with BID dosing of the vehicle, reference or test compound continuing for 2 or 4 days. During the study animals are weighed every day and stool observations are made and recorded as a score, based on stool consistency. At the time of sacrifice on Day 2 (or Day 4) the large intestine is removed and the length and weight recorded. Sections of the colon are taken for histopathology scoring to determine disease severity.

[4] = Hepatic microsomal stability, Cynomolgus macaque; format: in vitro ADME; details: pooled liver microsomes, read-out: Mean intrinsic clearance
Description: as §1, §2

[5] = tested on: adoptive transfer mouse model; assay: (D) Adoptive transfer in mice; format: in vivo, female SCID mice
Description: On Study day 0, female Balb/C mice are terminated and spleens obtained for CD45RB^high cell isolation (Using SCID IBD cell Separation protocol). Approximately 4×10^5 cells/mL CD45RB^high cells are then injected IP (100 μL/mouse) into female SCID animals. On study day 14, mice are weighed and randomized into treatment groups based on body weight. On Day 14 compounds are administered BID, via oral gavage, in a peanut oil vehicle at the dose levels outlined below and a dose volume of 5 mL/kg. Treatment continues until study day 42, at which point the animals are necropsied 4 hours after am administration. The colon length and weight is recorded and used as a secondary endpoint in the study as a measurement of colon oedema. The colon is then divided into six cross-sections, four of which are used for histopathology scoring (primary endpoint) and two are homogenised for cytokine analysis. Data shown is the % inhibition of the induction window between naïve animals and vehicle animals, where higher inhibition implies closer to the non-diseased, naïve, phenotype.

IC50 (Syk): 50 nM | hepatocyte CLint at 0.1 μM [1]: 43 µL/min/1e6 cells | IC50 (HT29 cells): 3.3 nM | microsomal CLint at 0.1 μM [2]: > 554 µL/min/mg | microsomal CLint at 0.1 μM [4]: 445 µL/min/mg
Compound: C#Cc1cc(Nc2nccc(Oc3ccc(NC(=O)Nc4cc(C(C)(C)C)nn4-c4ccc(C)cc4)c4ccccc34)n2)cc(C(=O)NCCOCCOCCOC)c1 [Example 2, 3-((4-((4-(3-(3-(tert-Butyl)-1-(p-tolyl)-1H-pyrazol-5-yl)ureido)naphthalen-1-yl)oxy)pyrimidin-2-yl)amino)-5-ethynyl-N-(2-(2-(2-methoxyethoxy)ethoxy)ethyl)-benzamide]
LP inflammation ([3]; 1 mg/kg oral BID): 2.9 ± 0.3 | Ulcer grade ([3]; 1 mg/kg oral BID): 3.5 ± 0.4 | LP inflammation ([3]; 5 mg/kg oral BID): 2.2 ± 0.4 | Ulcer grade ([3]; 5 mg/kg oral BID): 3.0 ± 0.5 | ulcer grade and epithelial repair compared to the vehicle control (histopathology) ([3]; dosed orally at 5 mg/kg): marked improvements in ulcer grade and epithelial repair | inflammatory cell infiltrate in the reticular and lamina propria zones (histopathology) ([3]; oral dosing): marked reduction | % Inhibition of colon weight:length ([5]; 0.04 mg/kg BID oral): 25%# | % inhibition of IL-8 release ([5]; 0.04 mg/kg BID oral): 34%# | % inhibition of overall histopathology score ([5]; 0.04 mg/kg BID oral): 2% | % Inhibition of colon weight:length ([5]; 0.2 mg/kg BID oral): 23% | % inhibition of IL-8 release ([5]; 0.2 mg/kg BID oral): 39% | % inhibition of overall histopathology score ([5]; 0.2 mg/kg BID oral): 5% | % Inhibition of colon weight:length ([5]; 1 mg/kg BID oral): 43%# | % inhibition of IL-8 release ([5]; 1 mg/kg BID oral): 36%# | % inhibition of overall histopathology score ([5]; 1 mg/kg BID oral): 33% | % Inhibition of colon weight:length ([5]; 5 mg/kg BID oral): 61%* | % inhibition of IL-8 release ([5]; 5 mg/kg BID oral): 90%# | % inhibition of overall histopathology score ([5]; 5 mg/kg BID oral): 46%
